In PMC5290327, “SC83288 is a clinical development candidate for the treatment of severe malaria” (Nature Communications, 2017):

Assays:
Assay in all cases: KINOMEscan
Type in all cases: binding
Settings in all cases: read-out: Remaining enzyme activity
AAK1 = molecular target: T1, AAK1 (Homo sapiens, UniProt Q2M2I8)
T1 construct: purchased Ambit (DiscoverX) KINOMEscan; Cerep
Summary of the method: (§1)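 Each kinase, tagged with DNA, is partitioned between test compound and an immobilized active-site ligand; qPCR of the eluate reports the bound fraction. SC81458 dosed once, 10 μM final concentration.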

ACVR2a = molecular target: T2, ACVR2a (Homo sapiens, UniProt P27037)
T2 construct: purchased Ambit (DiscoverX) KINOMEscan; Cerep
Summary of the method: as §1

BLK = molecular target: T3, BLK (Homo sapiens, UniProt P51451)
T3 construct: purchased Ambit (DiscoverX) KINOMEscan; Cerep
Summary of the method: as §1

CAMK2d = molecular target: T4, CAMK2d (Homo sapiens, UniProt Q13557)
T4 construct: purchased Ambit (DiscoverX) KINOMEscan; Cerep
Summary of the method: as §1

CAMK4 = molecular target: T5, CAMK4 (Homo sapiens, UniProt Q16566)
T5 construct: purchased Ambit (DiscoverX) KINOMEscan; Cerep
T5 sequence (Q16566 whole entry): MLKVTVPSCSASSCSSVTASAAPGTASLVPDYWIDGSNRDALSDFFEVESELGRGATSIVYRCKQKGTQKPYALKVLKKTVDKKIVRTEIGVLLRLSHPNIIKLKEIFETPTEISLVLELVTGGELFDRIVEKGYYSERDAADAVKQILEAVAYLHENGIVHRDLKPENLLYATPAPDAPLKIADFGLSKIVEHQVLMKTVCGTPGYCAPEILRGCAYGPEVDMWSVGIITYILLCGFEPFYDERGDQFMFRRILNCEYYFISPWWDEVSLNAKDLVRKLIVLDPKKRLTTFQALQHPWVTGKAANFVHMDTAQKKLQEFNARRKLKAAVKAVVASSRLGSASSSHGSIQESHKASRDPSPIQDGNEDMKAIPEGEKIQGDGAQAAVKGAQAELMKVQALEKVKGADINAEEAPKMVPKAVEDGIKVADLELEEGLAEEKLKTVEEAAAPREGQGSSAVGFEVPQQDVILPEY
Summary of the method: as §1

CAMKK2 = molecular target: T6, CAMKK2 (Homo sapiens, UniProt Q96RR4)
T6 construct: purchased Ambit (DiscoverX) KINOMEscan; Cerep
T6 sequence (Q96RR4 whole entry): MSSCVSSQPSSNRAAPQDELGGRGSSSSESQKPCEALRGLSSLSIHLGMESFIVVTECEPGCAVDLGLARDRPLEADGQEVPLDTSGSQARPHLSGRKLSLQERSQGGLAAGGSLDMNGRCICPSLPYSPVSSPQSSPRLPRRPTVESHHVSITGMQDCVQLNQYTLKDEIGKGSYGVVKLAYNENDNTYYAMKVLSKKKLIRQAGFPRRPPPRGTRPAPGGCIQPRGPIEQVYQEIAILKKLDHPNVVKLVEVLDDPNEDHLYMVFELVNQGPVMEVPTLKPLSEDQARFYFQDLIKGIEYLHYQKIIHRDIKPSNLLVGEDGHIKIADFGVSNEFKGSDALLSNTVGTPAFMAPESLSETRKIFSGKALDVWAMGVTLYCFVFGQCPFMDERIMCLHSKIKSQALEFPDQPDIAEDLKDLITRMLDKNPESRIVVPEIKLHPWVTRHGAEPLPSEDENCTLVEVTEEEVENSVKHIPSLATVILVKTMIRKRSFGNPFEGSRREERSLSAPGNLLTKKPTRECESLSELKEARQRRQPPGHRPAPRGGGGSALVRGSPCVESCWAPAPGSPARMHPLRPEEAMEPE
Summary of the method: as §1

CDK8 = molecular target: T7, CDK8 (Homo sapiens, UniProt P49336)
T7 construct: purchased Ambit (DiscoverX) KINOMEscan; Cerep
Summary of the method: as §1

CDKL3 = molecular target: T8, CDKL3 (Homo sapiens, UniProt Q8IVW4)
T8 construct: purchased Ambit (DiscoverX) KINOMEscan; Cerep
Summary of the method: as §1

CLK1 = molecular target: T9, CLK1 (Homo sapiens, UniProt P49759)
T9 construct: purchased Ambit (DiscoverX) KINOMEscan; Cerep
Summary of the method: as §1

CLK3 = molecular target: T10, CLK3 (Homo sapiens, UniProt P49761)
T10 construct: purchased Ambit (DiscoverX) KINOMEscan; Cerep
Summary of the method: as §1

CSNK1d = molecular target: T11, CSNK1d (Homo sapiens, UniProt P48730)
T11 construct: purchased Ambit (DiscoverX) KINOMEscan; Cerep
Summary of the method: as §1

DAPK3 = molecular target: T12, DAPK3 (Homo sapiens, UniProt O43293)
T12 construct: purchased Ambit (DiscoverX) KINOMEscan; Cerep
Summary of the method: as §1

DMPK2 = molecular target: T13, DMPK2 (Homo sapiens, UniProt Q6DT37)
T13 construct: purchased Ambit (DiscoverX) KINOMEscan; Cerep
T13 sequence (Q6DT37 whole entry): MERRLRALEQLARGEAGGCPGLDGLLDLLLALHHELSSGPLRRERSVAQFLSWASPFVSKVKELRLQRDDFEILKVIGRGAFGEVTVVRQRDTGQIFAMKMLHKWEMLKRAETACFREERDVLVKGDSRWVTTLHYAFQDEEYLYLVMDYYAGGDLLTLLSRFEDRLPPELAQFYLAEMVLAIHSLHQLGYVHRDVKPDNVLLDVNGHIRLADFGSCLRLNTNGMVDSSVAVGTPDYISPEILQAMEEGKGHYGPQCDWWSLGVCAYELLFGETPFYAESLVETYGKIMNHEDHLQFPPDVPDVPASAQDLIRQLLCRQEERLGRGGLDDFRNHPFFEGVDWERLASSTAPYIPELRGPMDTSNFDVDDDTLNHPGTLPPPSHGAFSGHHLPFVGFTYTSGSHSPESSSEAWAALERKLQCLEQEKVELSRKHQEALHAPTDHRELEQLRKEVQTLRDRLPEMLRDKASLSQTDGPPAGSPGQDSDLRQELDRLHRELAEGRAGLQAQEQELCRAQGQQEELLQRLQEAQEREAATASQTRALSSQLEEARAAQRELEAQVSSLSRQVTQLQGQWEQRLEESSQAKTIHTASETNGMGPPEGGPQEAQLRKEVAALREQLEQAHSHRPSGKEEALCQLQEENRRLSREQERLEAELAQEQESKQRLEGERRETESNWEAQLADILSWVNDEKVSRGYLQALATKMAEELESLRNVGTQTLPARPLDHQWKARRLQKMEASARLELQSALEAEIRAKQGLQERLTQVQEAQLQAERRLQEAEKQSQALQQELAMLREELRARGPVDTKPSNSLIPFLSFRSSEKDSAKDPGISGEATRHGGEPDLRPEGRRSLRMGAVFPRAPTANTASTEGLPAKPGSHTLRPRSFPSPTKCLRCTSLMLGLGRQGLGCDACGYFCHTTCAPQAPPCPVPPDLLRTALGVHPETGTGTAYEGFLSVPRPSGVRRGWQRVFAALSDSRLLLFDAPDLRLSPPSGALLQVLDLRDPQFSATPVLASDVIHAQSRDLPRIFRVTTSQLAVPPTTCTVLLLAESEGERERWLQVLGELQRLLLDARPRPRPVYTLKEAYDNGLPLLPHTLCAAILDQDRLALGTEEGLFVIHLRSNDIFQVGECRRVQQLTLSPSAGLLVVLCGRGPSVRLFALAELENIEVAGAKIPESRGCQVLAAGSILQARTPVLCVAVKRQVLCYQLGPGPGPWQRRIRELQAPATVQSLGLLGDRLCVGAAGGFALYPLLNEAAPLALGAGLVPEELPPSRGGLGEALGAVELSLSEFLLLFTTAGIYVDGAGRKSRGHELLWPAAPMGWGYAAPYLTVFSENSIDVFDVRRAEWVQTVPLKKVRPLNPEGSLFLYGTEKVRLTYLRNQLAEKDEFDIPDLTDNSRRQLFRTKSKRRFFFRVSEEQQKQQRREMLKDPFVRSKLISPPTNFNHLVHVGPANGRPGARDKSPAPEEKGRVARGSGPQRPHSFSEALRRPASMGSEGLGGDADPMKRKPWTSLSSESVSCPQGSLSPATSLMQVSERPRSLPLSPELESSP
Summary of the method: as §1

EPHA7 = molecular target: T14, EPHA7 (Homo sapiens, UniProt Q15375)
T14 construct: purchased Ambit (DiscoverX) KINOMEscan; Cerep
T14 sequence (Q15375 28-998): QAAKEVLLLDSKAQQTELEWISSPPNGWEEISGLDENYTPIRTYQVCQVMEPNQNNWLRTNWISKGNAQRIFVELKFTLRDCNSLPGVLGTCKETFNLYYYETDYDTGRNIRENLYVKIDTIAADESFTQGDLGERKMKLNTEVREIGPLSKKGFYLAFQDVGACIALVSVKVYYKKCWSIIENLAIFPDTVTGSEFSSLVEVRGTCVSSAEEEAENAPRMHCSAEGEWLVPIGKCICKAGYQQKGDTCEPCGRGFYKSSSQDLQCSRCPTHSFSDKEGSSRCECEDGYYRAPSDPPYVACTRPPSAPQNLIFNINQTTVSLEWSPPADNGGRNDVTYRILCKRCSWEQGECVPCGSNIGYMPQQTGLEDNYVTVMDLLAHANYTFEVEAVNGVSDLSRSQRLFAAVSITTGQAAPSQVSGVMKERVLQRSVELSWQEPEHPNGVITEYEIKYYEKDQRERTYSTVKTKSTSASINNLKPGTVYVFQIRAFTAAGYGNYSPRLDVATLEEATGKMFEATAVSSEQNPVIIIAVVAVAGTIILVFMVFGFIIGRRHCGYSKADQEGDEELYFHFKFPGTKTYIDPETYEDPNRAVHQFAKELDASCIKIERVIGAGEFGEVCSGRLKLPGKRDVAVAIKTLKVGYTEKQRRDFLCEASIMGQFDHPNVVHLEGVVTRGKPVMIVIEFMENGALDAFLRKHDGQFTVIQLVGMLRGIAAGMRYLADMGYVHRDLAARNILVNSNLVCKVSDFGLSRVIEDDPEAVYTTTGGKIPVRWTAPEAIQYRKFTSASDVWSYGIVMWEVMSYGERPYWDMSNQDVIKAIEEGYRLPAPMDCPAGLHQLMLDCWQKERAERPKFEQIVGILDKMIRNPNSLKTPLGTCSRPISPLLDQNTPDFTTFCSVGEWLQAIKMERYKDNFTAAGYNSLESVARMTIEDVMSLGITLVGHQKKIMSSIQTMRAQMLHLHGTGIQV
Summary of the method: as §1

EPHA8 = molecular target: T15, EPHA8 (Homo sapiens, UniProt P29322)
T15 construct: purchased Ambit (DiscoverX) KINOMEscan; Cerep
Summary of the method: as §1

ERN1 = molecular target: T16, ERN1 (Homo sapiens, UniProt O75460)
T16 construct: purchased Ambit (DiscoverX) KINOMEscan; Cerep
Summary of the method: as §1

FLT3(D835Y) = molecular target: T17, FLT3(D835Y) (Homo sapiens, UniProt P36888, D835Y)
T17 construct: purchased Ambit (DiscoverX) KINOMEscan; Cerep
Summary of the method: as §1

GAK = molecular target: T18, GAK (Homo sapiens, UniProt O14976)
T18 construct: purchased Ambit (DiscoverX) KINOMEscan; Cerep
Summary of the method: as §1

IRAK1 = molecular target: T19, IRAK1 (Homo sapiens, UniProt P51617)
T19 construct: purchased Ambit (DiscoverX) KINOMEscan; Cerep
Summary of the method: as §1

JNK1 = molecular target: T20, JNK1 (Homo sapiens, UniProt P45983)
T20 construct: purchased Ambit (DiscoverX) KINOMEscan; Cerep
Summary of the method: as §1

KIT = molecular target: T21, KIT (Homo sapiens, UniProt P10721)
T21 construct: purchased Ambit (DiscoverX) KINOMEscan; Cerep
T21 sequence (P10721 26-976): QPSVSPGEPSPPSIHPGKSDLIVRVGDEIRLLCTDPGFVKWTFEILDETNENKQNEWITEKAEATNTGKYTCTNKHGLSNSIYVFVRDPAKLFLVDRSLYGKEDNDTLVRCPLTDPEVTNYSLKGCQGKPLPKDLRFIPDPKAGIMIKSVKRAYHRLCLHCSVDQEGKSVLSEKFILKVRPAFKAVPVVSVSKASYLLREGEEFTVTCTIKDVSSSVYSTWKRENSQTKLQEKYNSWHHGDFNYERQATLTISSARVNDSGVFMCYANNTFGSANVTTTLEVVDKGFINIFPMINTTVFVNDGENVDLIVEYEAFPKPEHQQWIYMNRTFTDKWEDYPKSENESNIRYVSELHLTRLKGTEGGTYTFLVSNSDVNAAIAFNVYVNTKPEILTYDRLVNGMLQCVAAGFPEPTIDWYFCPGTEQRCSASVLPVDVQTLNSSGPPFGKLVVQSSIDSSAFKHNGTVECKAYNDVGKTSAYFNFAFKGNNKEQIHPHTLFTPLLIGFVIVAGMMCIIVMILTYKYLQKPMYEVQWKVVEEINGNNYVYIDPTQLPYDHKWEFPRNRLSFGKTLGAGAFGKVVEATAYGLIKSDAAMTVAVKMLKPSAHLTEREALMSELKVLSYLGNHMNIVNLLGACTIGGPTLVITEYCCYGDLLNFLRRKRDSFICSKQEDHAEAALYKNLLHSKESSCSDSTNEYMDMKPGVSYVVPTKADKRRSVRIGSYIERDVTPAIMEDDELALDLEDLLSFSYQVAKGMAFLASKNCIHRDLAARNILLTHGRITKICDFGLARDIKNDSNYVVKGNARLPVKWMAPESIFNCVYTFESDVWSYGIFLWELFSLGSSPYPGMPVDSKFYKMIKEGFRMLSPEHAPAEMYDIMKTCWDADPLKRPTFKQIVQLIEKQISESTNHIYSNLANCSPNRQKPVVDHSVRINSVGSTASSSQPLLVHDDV
Summary of the method: as §1

KIT(V559D) = molecular target: T22, KIT(V559D) (Homo sapiens, UniProt P10721, V559D)
T22 construct: purchased Ambit (DiscoverX) KINOMEscan; Cerep
T22 sequence (P10721 26-976 V559D): as the sequence (P10721 26-976) above, with V534D counted along it
Summary of the method: as §1

MAP3K3 = molecular target: T23, MAP3K3 (Homo sapiens, UniProt Q99759)
T23 construct: purchased Ambit (DiscoverX) KINOMEscan; Cerep
Summary of the method: as §1

MST1 = molecular target: T24, MST1 (Homo sapiens, UniProt Q13043)
T24 construct: purchased Ambit (DiscoverX) KINOMEscan; Cerep
Summary of the method: as §1

MST1R = molecular target: T25, MST1R (Homo sapiens, UniProt Q04912)
T25 construct: purchased Ambit (DiscoverX) KINOMEscan; Cerep
Summary of the method: as §1

PIK3CA(M1043I) = molecular target: T26, PIK3CA(M1043I) (Homo sapiens, UniProt P42336, M1043I)
T26 construct: purchased Ambit (DiscoverX) KINOMEscan; Cerep
Summary of the method: as §1

PIM1 = molecular target: T27, PIM1 (Homo sapiens, UniProt P11309)
T27 construct: purchased Ambit (DiscoverX) KINOMEscan; Cerep
Summary of the method: as §1

RET(V804M) = molecular target: T28, RET(V804M) (Homo sapiens, UniProt P07949, V804M)
T28 construct: purchased Ambit (DiscoverX) KINOMEscan; Cerep
Summary of the method: as §1

[1] = molecular target: T29, RPS6KA1(Kin.Dom.2-C-term) (Homo sapiens, UniProt Q15418)
T29 construct: RPS6KA1(Kin.Dom.2-C-term); purchased Ambit (DiscoverX) KINOMEscan; Cerep
Summary of the method: as §1

RRET(V804L) = molecular target: T30, RRET(V804L) (Homo sapiens, UniProt P07949, V804L)
T30 construct: purchased Ambit (DiscoverX) KINOMEscan; Cerep
Summary of the method: as §1

SgK085 = molecular target: T31, SgK085 (Homo sapiens, UniProt Q86YV6)
T31 construct: purchased Ambit (DiscoverX) KINOMEscan; Cerep
T31 sequence (Q86YV6 whole entry): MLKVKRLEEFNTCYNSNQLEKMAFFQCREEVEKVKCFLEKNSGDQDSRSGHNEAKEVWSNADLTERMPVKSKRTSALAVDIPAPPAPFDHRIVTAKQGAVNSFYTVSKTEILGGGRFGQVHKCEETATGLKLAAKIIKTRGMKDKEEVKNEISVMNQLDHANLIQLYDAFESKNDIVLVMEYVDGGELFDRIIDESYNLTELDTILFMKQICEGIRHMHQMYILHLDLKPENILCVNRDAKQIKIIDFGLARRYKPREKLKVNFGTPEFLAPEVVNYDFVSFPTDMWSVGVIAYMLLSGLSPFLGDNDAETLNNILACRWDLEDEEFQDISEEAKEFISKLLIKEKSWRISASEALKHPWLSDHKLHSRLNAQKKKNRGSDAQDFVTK
Summary of the method: as §1

TAK1 = molecular target: T32, TAK1 (Homo sapiens, UniProt O43318)
T32 construct: purchased Ambit (DiscoverX) KINOMEscan; Cerep
Summary of the method: as §1

TLK2 = molecular target: T33, TLK2 (Homo sapiens, UniProt Q86UE8)
T33 construct: purchased Ambit (DiscoverX) KINOMEscan; Cerep
Summary of the method: as §1

With `CCCCN1CCN(C(=N)c2cccc(NC(=O)Nc3ccc(S(=O)(=O)NCc4ccc(S(N)(=O)=O)cc4)cc3)c2)CC1` [SC81458, 4-(3-(3-((4-butylpiperazin-1-yl)(imino)methyl)phenyl)ureido)-N-(4-sulfamoylbenzyl) benzenesulfonamide] the remaining binding at 10 µM (AAK1) was 100%, the remaining binding at 10 µM (ACVR2a) was 100% and the remaining binding at 10 µM (BLK) was 100%. It also gave a remaining binding at 10 µM (CAMK2d) of 90%, a remaining binding at 10 µM (CAMK4) of 51% and a remaining binding at 10 µM (CAMKK2) of 100%. The remaining binding at 10 µM (CDK8) was 100%, the remaining binding at 10 µM (CDKL3) was 98% and the remaining binding at 10 µM (CLK1) was 100%. The remaining binding at 10 µM (CLK3) was 100%, the remaining binding at 10 µM (CSNK1d) was 100% and the remaining binding at 10 µM (DAPK3) was 100%. For the same compound, the remaining binding at 10 µM (DMPK2) was 100%, the remaining binding at 10 µM (EPHA7) was 81% and the remaining binding at 10 µM (EPHA8) was 83%. It also gave a remaining binding at 10 µM (ERN1) of 100%, a remaining binding at 10 µM (FLT3(D835Y)) of 89% and a remaining binding at 10 µM (GAK) of 92%. It also gave a remaining binding at 10 µM (IRAK1) of 95%, a remaining binding at 10 µM (JNK1) of 98% and a remaining binding at 10 µM (KIT) of 60%. For the same compound, the remaining binding at 10 µM (KIT(V559D)) was 100%, the remaining binding at 10 µM (MAP3K3) was 100% and the remaining binding at 10 µM (MST1) was 100%. For the same compound, the remaining binding at 10 µM (MST1R) was 91%, the remaining binding at 10 µM (PIK3CA(M1043I)) was 100% and the remaining binding at 10 µM (PIM1) was 100%. It also gave a remaining binding at 10 µM (RET(V804M)) of 100%, a remaining binding at 10 µM [1] of 100% and a remaining binding at 10 µM (RRET(V804L)) of 100%. It also gave a remaining binding at 10 µM (SgK085) of 100%, a remaining binding at 10 µM (TAK1) of 100% and a remaining binding at 10 µM (TLK2) of 97%.
